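All cell lines were grown in 96-well plates and treated with compound for 48 hours. GI50 is the concentration that inhibits growth by half. TGI: total growth inhibition.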
How the values were obtained:
Test in all cases: NCI anticancer screen, dose series, 48 h
[1] = tested on: A549 NSCLC
[2] = tested on: IGROV1 ovarian
[3] = tested on: MALME-3M melanoma
[4] = tested on: OVCAR-3 ovarian
[5] = tested on: OVCAR-5 ovarian
[6] = tested on: SF-539 CNS
[7] = tested on: SK-MEL-28 melanoma
[8] = tested on: UACC-62 melanoma
[9] = tested on: MDA-MB-231 breast
[10] = tested on: MDA-MB-435

| SMILES | TGI [1] | TGI [2] | TGI [3] | TGI [4] | TGI [5] | TGI [6] | TGI [7] | TGI [8] | GI50 [2] | GI50 [3] | GI50 [9] | TGI [9] | GI50 [10] | TGI [10] | GI50 [4] | GI50 [5] | GI50 [6] | GI50 [7] | GI50 [8] | GI50 [1] |
| --- | --- | --- | --- | --- | --- | --- | --- | --- | --- | --- | --- | --- | --- | --- | --- | --- | --- | --- | --- | --- |
| Cc1cc(C)nc(NS(=O)(=O)c2ccc(NC(=O)COC(=O)c3cccc4c(=O)c5ccccc5[nH]c34)cc2)n1 | > 100 µM | > 100 µM | 73 µM | 51.4 µM | 58.9 µM | 34 µM | > 100 µM | 34.3 µM | – | – | – | – | – | – | – | – | – | – | – | – |
| CCN(CC)CC(O)c1cc(-c2ccc(Cl)cc2)nc2c(C)c(Cl)ccc12 (configuration not stated) | – | 2.36 µM | 3.98 µM | 2.9 µM | 3.37 µM | 3.03 µM | 3.17 µM | 3.39 µM | 1 µM | 1.93 µM | 1.47 µM | 3.03 µM | 1.74 µM | 3.29 µM | 1.51 µM | 1.74 µM | 1.49 µM | 1.78 µM | 1.84 µM | – |
| C=C(Br)COc1ccc2c(C)cc(=O)oc2c1 | > 100 µM | > 100 µM | > 100 µM | > 100 µM | > 100 µM | > 100 µM | > 100 µM | – | – | – | – | > 100 µM | – | > 100 µM | – | – | – | – | – | – |
| Fc1ccc(N=C2C=CC(=Nc3ccc(F)cc3)c3ccccc32)cc1 | > 100 µM | > 100 µM | > 100 µM | > 100 µM | > 100 µM | > 100 µM | > 100 µM | > 100 µM | – | – | – | – | – | – | – | – | – | – | – | – |
| CCCCCCCCCCCCCCCCCC[S+](C)CC (configuration not stated) | – | – | 3.45 µM | 2.33 µM | 4.25 µM | – | 3.71 µM | – | – | 1.38 µM | 1.67 µM | 3.83 µM | 1.63 µM | 3.47 µM | 1.08 µM | 1.58 µM | – | 1.67 µM | – | – |
| Cc1ccc(NC(=O)CC2SC(=Nc3ccc(Cl)cc3)NC2=O)cc1C (configuration not stated) | 34.3 µM | > 60.8 µM | 33.2 µM | 33.2 µM | 33.1 µM | 35.4 µM | 33.9 µM | 32.6 µM | – | – | – | – | – | – | – | – | – | – | – | – |
| COc1ccc(/C=C/C(=O)/C=C(O)/C=C/c2ccc(OC)c(OC)c2)cc1OC | > 100 µM | > 100 µM | > 100 µM | > 100 µM | 46.4 µM | – | 44 µM | 38.3 µM | 3.43 µM | 3.82 µM | 6.19 µM | > 100 µM | 3.32 µM | > 100 µM | 2.8 µM | 6.42 µM | – | 18.4 µM | 10.8 µM | 37.9 µM |
| CC(C)C1=CC2=C(C(=O)C1=O)C13CCCC(C)(C)C1CC2OC3=O (configuration not stated) | > 100 µM | 32.2 µM | – | 38.8 µM | 59.7 µM | 46.3 µM | 31.7 µM | 27.4 µM | – | – | – | 42.6 µM | – | 43.2 µM | – | – | – | – | – | – |
| COc1cc(CC(=O)O)c([N+](=O)[O-])cc1OC | > 100 µM | > 100 µM | > 100 µM | > 100 µM | > 100 µM | > 100 µM | > 100 µM | > 100 µM | – | – | – | – | – | – | – | – | – | – | – | – |
| CCn1ncc(N=O)c1N | > 100 µM | > 100 µM | – | > 100 µM | > 100 µM | > 100 µM | > 100 µM | > 100 µM | – | – | – | – | – | > 100 µM | – | – | – | – | – | – |
| Nc1c(C(=O)Nc2cccc(C(F)(F)F)c2)sc2nc3c(cc12)CCCCCC3 | 5.08 µM | – | 11.3 µM | 4.88 µM | 13.7 µM | 3.37 µM | 15.9 µM | 21.5 µM | – | 3.54 µM | 3.09 µM | 10.6 µM | 2.1 µM | 13.9 µM | 2.17 µM | 3.29 µM | 1.71 µM | 3.36 µM | 3.25 µM | 1.77 µM |
| COc1cc(N2CCC(N)CC2)ccc1Nc1ncc(Cl)c(-c2c[nH]c3ccccc23)n1 | 1.65 µM | 2.23 µM | – | 3.71 µM | 2.11 µM | 1.7 µM | 2.64 µM | – | 0.405 µM | – | 1.22 µM | 2.79 µM | 0.266 µM | 1.77 µM | 1.14 µM | 0.137 µM | 0.437 µM | 1.31 µM | – | 0.248 µM |
| O=C(CC1(O)C(=O)Nc2ccccc21)c1ccccc1O (configuration not stated) | > 100 µM | > 100 µM | > 100 µM | > 100 µM | > 100 µM | > 100 µM | > 100 µM | > 100 µM | – | – | – | – | – | – | – | – | – | – | – | – |
| Cc1cc(C)c(/C=N/NS(=O)(=O)c2ccccc2)c(C)c1 | > 100 µM | > 100 µM | > 100 µM | > 100 µM | > 100 µM | > 100 µM | > 100 µM | > 100 µM | – | – | – | – | – | – | – | – | – | – | – | – |
| CC(=O)Nc1ccc(C2=N/C(=C\c3ccc(Cl)cc3)C(=O)O2)cc1 | > 100 µM | > 100 µM | > 100 µM | 86.7 µM | > 100 µM | > 100 µM | > 100 µM | > 100 µM | – | – | – | – | – | – | – | – | – | – | – | – |
| [CH3][Hg]/[N]=C(/N)NC#N | 38.4 µM | 36.6 µM | 4.94 µM | 8.6 µM | 31 µM | 32.4 µM | 30.1 µM | 23.9 µM | 18.9 µM | 2.34 µM | – | – | – | – | 2.74 µM | 17.1 µM | 17.7 µM | 11.9 µM | 11.4 µM | 17.3 µM |
| COc1ccc2nc3ccccc3c(NCCN(CCCl)CCCl)c2c1 | 10.7 µM | 4.34 µM | 3.01 µM | 1.08 µM | 2.49 µM | – | 5.28 µM | 2.3 µM | – | – | – | – | – | – | – | – | – | – | – | – |
| COc1cc2c(cc1[N+](=O)[O-])C(=O)C(Br)(Br)CCC2 | > 46.6 µM | 2.93 µM | 4.99 µM | 10.5 µM | 4.42 µM | 3.87 µM | – | 10 µM | – | – | – | 9.42 µM | – | 10.9 µM | – | – | – | – | – | – |
| COC(=O)c1cccc(NC(=O)c2ccc(NC3=C(Cl)C(=O)N(Cc4ccccc4)C3=O)cc2)c1 | 48.7 µM | 3.34 µM | – | 25.9 µM | 29.4 µM | 29.5 µM | 52 µM | 25.4 µM | 0.176 µM | – | 10.7 µM | 32.1 µM | 14.3 µM | 34.2 µM | 6.45 µM | 3.63 µM | 14.7 µM | 15.2 µM | 11.7 µM | 17.5 µM |
| CC1(C)C(CC(=O)O)CCCC1CC(=O)O (configuration not stated) | > 100 µM | > 100 µM | – | > 100 µM | > 100 µM | – | > 100 µM | > 100 µM | – | – | – | > 100 µM | – | > 100 µM | – | – | – | – | – | – |
